Data as given in PubChem BioAssay (NCI).
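Cultured in 96-well plates, cells were exposed to test compound for 48 hours across five concentrations. GI50: concentration for 50% inhibition of growth. TGI: concentration producing complete growth inhibition.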

Key:
Test in all cases: inhibition of tumour cell growth, NCI panel, 48 h
786-0 renal = system: 786-0 renal
A498 renal = system: A498 renal
A549 NSCLC = system: A549 NSCLC
ACHN renal = system: ACHN renal
BT-549 breast = system: BT-549 breast
CAKI-1 renal = system: CAKI-1 renal
CCRF-CEM leukemia = system: CCRF-CEM leukemia
COLO 205 colon = system: COLO 205 colon
DU-145 prostate = system: DU-145 prostate
EKVX NSCLC = system: EKVX NSCLC
HCC-2998 colon = system: HCC-2998 colon
HCT-116 colon = system: HCT-116 colon
HCT-15 colon = system: HCT-15 colon
HL-60(TB) leukemia = system: HL-60(TB) leukemia
HOP-62 NSCLC = system: HOP-62 NSCLC
HOP-92 NSCLC = system: HOP-92 NSCLC
HS 578T breast = system: HS 578T breast
HT29 colon = system: HT29 colon
IGROV1 ovarian = system: IGROV1 ovarian
K-562 leukemia = system: K-562 leukemia
KM12 colon = system: KM12 colon
LOX IMVI melanoma = system: LOX IMVI melanoma
M14 melanoma = system: M14 melanoma
MCF7 breast = system: MCF7 breast
MDA-MB-231 breast = system: MDA-MB-231 breast
MDA-MB-435 = system: MDA-MB-435
MDA-MB-468 breast = system: MDA-MB-468 breast
MOLT-4 leukemia = system: MOLT-4 leukemia
NCI-H226 lung = system: NCI-H226 lung
NCI-H23 lung = system: NCI-H23 lung
NCI-H460 lung = system: NCI-H460 lung
NCI-H522 lung = system: NCI-H522 lung
NCI/ADR-RES ovarian = system: NCI/ADR-RES ovarian
OVCAR-3 ovarian = system: OVCAR-3 ovarian
OVCAR-4 ovarian = system: OVCAR-4 ovarian
OVCAR-5 ovarian = system: OVCAR-5 ovarian
OVCAR-8 ovarian = system: OVCAR-8 ovarian
PC-3 prostate = system: PC-3 prostate
RPMI-8226 leukemia = system: RPMI-8226 leukemia
RXF 393 renal = system: RXF 393 renal
SF-268 CNS = system: SF-268 CNS
SF-295 CNS = system: SF-295 CNS
SF-539 CNS = system: SF-539 CNS
SK-MEL-2 melanoma = system: SK-MEL-2 melanoma
SK-MEL-28 melanoma = system: SK-MEL-28 melanoma
SK-MEL-5 melanoma = system: SK-MEL-5 melanoma
SK-OV-3 ovarian = system: SK-OV-3 ovarian
SN12C renal = system: SN12C renal
SNB-19 CNS = system: SNB-19 CNS
SNB-75 CNS = system: SNB-75 CNS
SR leukemia = system: SR leukemia
SW-620 colon = system: SW-620 colon
T-47D breast = system: T-47D breast
TK-10 renal = system: TK-10 renal
U251 CNS = system: U251 CNS
UACC-257 melanoma = system: UACC-257 melanoma
UACC-62 melanoma = system: UACC-62 melanoma
UO-31 renal = system: UO-31 renal

## O=C(N/N=C/c1occc1Br)c1[nH]c2ccc(Br)cc2c1-c1ccccc1
786-0 renal
  GI50: 0.677 µM
  TGI: 16.7 µM
A498 renal
  GI50: 14.8 µM
  TGI: 28.8 µM
A549 NSCLC
  GI50: 1.95 µM
  TGI: 21.9 µM
ACHN renal
  GI50: 0.952 µM
  TGI: 16.2 µM
BT-549 breast
  GI50: 0.743 µM
  TGI: 12.9 µM
CAKI-1 renal
  GI50: 0.698 µM
  TGI: 17.1 µM
CCRF-CEM leukemia
  GI50: 0.512 µM
  TGI: 11 µM
COLO 205 colon
  GI50: 0.561 µM
  TGI: 3.97 µM
DU-145 prostate
  GI50: 2.71 µM
  TGI: 13.1 µM
EKVX NSCLC
  GI50: 1.93 µM
  TGI: 17.3 µM
HCC-2998 colon
  GI50: 1.79 µM
  TGI: 13.7 µM
HCT-116 colon
  GI50: 0.557 µM
  TGI: 12.6 µM
HCT-15 colon
  GI50: 0.516 µM
  TGI: 11.7 µM
HL-60(TB) leukemia
  GI50: 0.344 µM
  TGI: 2.02 µM
HOP-62 NSCLC
  GI50: 0.668 µM
  TGI: 18.1 µM
HOP-92 NSCLC
  GI50: 11.2 µM
  TGI: 24.7 µM
HS 578T breast
  GI50: 0.759 µM
  TGI: 18.4 µM
HT29 colon
  GI50: 0.456 µM
  TGI: 2.68 µM
IGROV1 ovarian
  GI50: 1.23 µM
  TGI: 13.7 µM
K-562 leukemia
  GI50: 0.384 µM
  TGI: > 100 µM
KM12 colon
  GI50: 1.26 µM
  TGI: 14.1 µM
LOX IMVI melanoma
  GI50: 0.663 µM
  TGI: 12.7 µM
M14 melanoma
  GI50: 0.669 µM
  TGI: 15.8 µM
MCF7 breast
  GI50: 0.323 µM
  TGI: 11.9 µM
MDA-MB-231 breast
  GI50: 1.1 µM
  TGI: 14.6 µM
MDA-MB-435
  GI50: 0.249 µM
  TGI: 0.875 µM
MDA-MB-468 breast
  GI50: 0.383 µM
  TGI: 16.9 µM
MOLT-4 leukemia
  GI50: 1.45 µM
  TGI: 12.8 µM
NCI-H226 lung
  GI50: 2.51 µM
  TGI: 16.6 µM
NCI-H23 lung
  GI50: 2.05 µM
  TGI: 13.2 µM
NCI-H460 lung
  GI50: 0.756 µM
  TGI: 10.9 µM
NCI-H522 lung
  GI50: 0.183 µM
  TGI: 0.5 µM
NCI/ADR-RES ovarian
  GI50: 0.348 µM
  TGI: 3.24 µM
OVCAR-3 ovarian
  GI50: 0.351 µM
  TGI: 11.8 µM
OVCAR-4 ovarian
  GI50: 7.1 µM
  TGI: 22 µM
OVCAR-5 ovarian
  GI50: 2.79 µM
  TGI: 13.6 µM
OVCAR-8 ovarian
  GI50: 2.3 µM
  TGI: 11.3 µM
PC-3 prostate
  GI50: 0.941 µM
  TGI: 14.9 µM
RPMI-8226 leukemia
  GI50: 2.44 µM
  TGI: 20.5 µM
RXF 393 renal
  GI50: 2.68 µM
  TGI: 22.2 µM
SF-268 CNS
  GI50: 1.74 µM
  TGI: 16.2 µM
SF-295 CNS
  GI50: 0.359 µM
  TGI: 13.5 µM
SF-539 CNS
  GI50: 1.16 µM
  TGI: 4.36 µM
SK-MEL-2 melanoma
  GI50: 0.675 µM
  TGI: 16.9 µM
SK-MEL-28 melanoma
  GI50: 5.05 µM
  TGI: 20.9 µM
SK-MEL-5 melanoma
  GI50: 0.677 µM
  TGI: 6.21 µM
SK-OV-3 ovarian
  GI50: 1.5 µM
  TGI: 18.1 µM
SN12C renal
  GI50: 1.51 µM
  TGI: 12.5 µM
SNB-19 CNS
  GI50: 2.85 µM
  TGI: 19.3 µM
SNB-75 CNS
  GI50: 0.832 µM
  TGI: 14.2 µM
SR leukemia
  GI50: 0.459 µM
  TGI: 30 µM
SW-620 colon
  GI50: 0.443 µM
  TGI: 14.3 µM
T-47D breast
  GI50: 0.484 µM
  TGI: 19.7 µM
TK-10 renal
  GI50: 7.68 µM
  TGI: 26.5 µM
U251 CNS
  GI50: 3.22 µM
  TGI: 16.8 µM
UACC-257 melanoma
  GI50: 12.5 µM
  TGI: 28.8 µM
UACC-62 melanoma
  GI50: 0.384 µM
  TGI: 16.7 µM
UO-31 renal
  GI50: 0.746 µM
  TGI: 21.1 µM
